Strand notation (5' to 3'): a small letter for the sugar, then the base; units joined by * are phosphorothioate-linked, units joined directly phosphodiester-linked; [ ] holds rarer units or linkages, { } end groups; capitals alone tell only the bases. k = constrained ethyl (cEt); [5mC] = 5-methylcytosine; d = 2'-deoxy (DNA)
Legend:
Type in all cases: cell-based
[1] = tested on: Yap1 mRNA; experiment: Dose-dependent inhibition of human Yap1 in A-431 cells (Example 6, 5,000 cells per well, RTS4814); settings: for Yap1 mRNA, % UTC: 48 hours; for % UTC 148 nM / % UTC 444 nM / % UTC 1333 nM / % UTC 4000 nM: approximately 48 hours
Procedure: Modified oligonucleotides described in the studies above were tested at various doses in A-431 cells. Cultured A-431 cells at a density of 5,000 cells per well were treated using free uptake with modified oligonucleotides diluted to concentrations described in the tables below. After approximately 48 hours, Yap1 mRNA levels were measured as previously described using the Human Yap1 primer-probe set RTS4814. Yap1 mRNA levels were normalized to total RNA content, as measured by RIBOGREEN®. Results are presented in the tables below as percent control of the amount of Yap1 mRNA relative to untreated control cells (% UTC). IC50s were calculated using a linear regression on a log/linear plot of the data in excel.

[2] = tested on: Yap1 mRNA; experiment: Antisense inhibition of human Yap1 in A-431 cells by cEt gapmers, single dose (Example 4, RTS4814); settings: Table 16; A-431 cells, 5,000 cells per well, free uptake, 2,000 nM, approximately 48 hours; RTS4814; normalized to RIBOGREEN; Yap1 mRNA relative to untreated control cells
Procedure, shortened: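 A-431 cells took up 3-10-3 cEt gapmers (16-mer, full phosphorothioate, 5-methylcytosines) by free uptake at 2,000 nM for about 48 h. Yap1 mRNA was quantified by qRT-PCR, normalized to total RNA (RIBOGREEN), and reported as % of untreated control.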

[3] = tested on: Yap1 mRNA; experiment: Antisense inhibition of human Yap1 in SNU-449 cells by modified oligonucleotides, single dose (Example 5, RTS36584); settings: Yap1 mRNA, percent of untreated control; modified oligonucleotides targeting SEQ ID NO: 1 and 2; Table 47
Procedure, shortened: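 Each modified oligonucleotide is applied by free uptake to SNU-449 cultures at 2,000 nM, and total RNA is harvested around 48 h later. Yap1 transcript, quantified with the RTS36584 set and corrected for RIBOGREEN RNA content, is given as % UTC. Asterisks mark sequences overlapping the amplicon.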

[4] = Table 55, 148 nM, free uptake, A-431 cells 5,000 cells per well, RTS4814
[5] = Table 55, 444 nM, free uptake, A-431 cells 5,000 cells per well, RTS4814
[6] = Table 55, 1333 nM, free uptake, A-431 cells 5,000 cells per well, RTS4814
[7] = Table 55, 4000 nM, free uptake, A-431 cells 5,000 cells per well, RTS4814
[8] = Table 55, A-431 cells 5,000 cells per well, free uptake, RTS4814
[9] = Table 53, A-431 cells, Yap1 mRNA, linear regression on a log/linear plot
[10] = Table 53, A-431 cells, free uptake, 148 nM, RTS4814
[11] = Table 53, A-431 cells, free uptake, 444 nM, RTS4814
[12] = Table 53, A-431 cells, free uptake, 1333 nM, RTS4814
[13] = Table 53, A-431 cells, free uptake, 4000 nM, RTS4814
[14] = Table 54, A-431 cells, Yap1 mRNA, linear regression on a log/linear plot
[15] = Table 54, A-431 cells, free uptake, 148 nM, RTS4814
[16] = Table 54, A-431 cells, free uptake, 444 nM, RTS4814
[17] = Table 54, A-431 cells, free uptake, 1333 nM, RTS4814
[18] = Table 54, A-431 cells, free uptake, 4000 nM, RTS4814

716407 (antisense k[5mC]*kT*kT*dA*dG*dT*d[5mC]*d[5mC]*dA*d[5mC]*dT*dG*dT*k[5mC]*kT*kG) [compound 716407]
Yap1 mRNA, % UTC [1, 4]: 84 % UTC
Yap1 mRNA, % UTC [1, 5]: 75 % UTC
Yap1 mRNA, % UTC [1, 6]: 72 % UTC
Yap1 mRNA, % UTC [1, 7]: 39 % UTC
IC50 [1, 8]: 3 µM

716419 (antisense kT*kT*kT*d[5mC]*d[5mC]*dG*dG*dT*dG*d[5mC]*dA*dT*dG*kT*kG*kT) [compound 716419]
Yap1 mRNA, % UTC [1, 4]: 89 % UTC
Yap1 mRNA, % UTC [1, 5]: 84 % UTC
Yap1 mRNA, % UTC [1, 6]: 49 % UTC
Yap1 mRNA, % UTC [1, 7]: 47 % UTC
IC50 [1, 8]: 2.5 µM

715486 (kT*kA*k[5mC]*dT*dT*d[5mC]*dA*dT*dA*dG*d[5mC]*dT*dT*kA*kT*kA; antisense) [compound 715486]
IC50 [1, 9]: > 4 µM
% UTC 148 nM [1, 10]: 93 % UTC
% UTC 444 nM [1, 11]: 89 % UTC
% UTC 1333 nM [1, 12]: 81 % UTC
% UTC 4000 nM [1, 13]: 56 % UTC

716489 (antisense kA*kG*kT*dT*dA*dA*dT*dT*d[5mC]*dA*dT*dG*d[5mC]*kT*k[5mC]*kG) [compound 716489]
Yap1 mRNA, % UTC [1, 4]: 84 % UTC
Yap1 mRNA, % UTC [1, 5]: 83 % UTC
Yap1 mRNA, % UTC [1, 6]: 69 % UTC
Yap1 mRNA, % UTC [1, 7]: 61 % UTC
IC50 [1, 8]: > 4 µM

716381 (kT*kG*kT*d[5mC]*dT*dG*dA*dT*d[5mC]*dG*dA*dT*dG*kT*kG*kA; antisense) [compound 716381]
Yap1 mRNA, % UTC [1, 4]: 106 % UTC
Yap1 mRNA, % UTC [1, 5]: 90 % UTC
Yap1 mRNA, % UTC [1, 6]: 80 % UTC
Yap1 mRNA, % UTC [1, 7]: 44 % UTC
IC50 [1, 8]: 4.2 µM

1074754 (k[5mC]*kT*kT*dT*dT*dA*d[5mC]*dA*dT*dT*dA*dG*dG*kA*kA*k[5mC]) [Compound 1074754]
YAP1 (% UTC) [2]: 11 % UTC
YAP1 (% UT) [3]: 69 % UT

716554 (antisense kA*kT*kG*d[5mC]*dT*dT*dG*d[5mC]*dG*dA*dG*dG*dA*kT*kA*kA) [compound 716554]
Yap1 mRNA, % UTC [1, 4]: 87 % UTC
Yap1 mRNA, % UTC [1, 5]: 90 % UTC
Yap1 mRNA, % UTC [1, 6]: 76 % UTC
Yap1 mRNA, % UTC [1, 7]: 50 % UTC
IC50 [1, 8]: > 4 µM

715555 (kG*kT*kT*dA*dT*dT*d[5mC]*dA*dG*d[5mC]*dA*dG*d[5mC]*kT*kT*kA; antisense) [compound 715555]
IC50 [1, 9]: 2.5 µM
% UTC 148 nM [1, 10]: 93 % UTC
% UTC 444 nM [1, 11]: 71 % UTC
% UTC 1333 nM [1, 12]: 63 % UTC
% UTC 4000 nM [1, 13]: 42 % UTC

715510 (kA*kT*kT*dT*dG*d[5mC]*dT*dG*dT*dG*d[5mC]*dT*dG*kG*kG*kA; antisense) [compound 715510]
IC50 [1, 9]: 2.4 µM
% UTC 148 nM [1, 10]: 88 % UTC
% UTC 444 nM [1, 11]: 67 % UTC
% UTC 1333 nM [1, 12]: 59 % UTC
% UTC 4000 nM [1, 13]: 45 % UTC

716496 (antisense kG*kA*kA*dG*dA*dG*dA*dT*dT*dT*dT*dA*dT*kG*k[5mC]*k[5mC]) [compound 716496]
IC50 [1, 14]: > 4 µM
% UTC 148 nM [1, 15]: 74 % UTC
% UTC 444 nM [1, 16]: 87 % UTC
% UTC 1333 nM [1, 17]: 64 % UTC
% UTC 4000 nM [1, 18]: 49 % UTC

716445 (antisense kG*kT*kA*dT*dG*dT*dG*dG*d[5mC]*dA*dA*dT*dA*kA*kT*kT) [compound 716445]
IC50 [1, 14]: 2.6 µM
% UTC 148 nM [1, 15]: 89 % UTC
% UTC 444 nM [1, 16]: 82 % UTC
% UTC 1333 nM [1, 17]: 56 % UTC
% UTC 4000 nM [1, 18]: 44 % UTC

Reference: patent publication US11214803B2, “Modulators of YAP1 expression” (Ionis Pharmaceuticals, Inc., priority 2019, dated 2022)
